From PMC8817134, “Galangin as a direct inhibitor of vWbp protects mice from Staphylococcus aureus‐induced pneumonia” (Journal of Cellular and Molecular Medicine, 2021) come the findings set out here.

Test [1] has as its target T1, vWbp (von Willebrand factor-binding protein) (Staphylococcus aureus, UniProt Q93SM9).
T1 construct: gene vwb; His-tagged, pET15b, E. coli BL21(DE3), Ni-NTA purified
Kind of test: biolayer interferometry (Octet RED, Ni-NTA sensor). The conditions noted are these: read-out: binding constant.

Test [2] has as its target T1, vWbp (von Willebrand factor-binding protein). The test can be described thus: fluorescence quenching. To be noted: read-out: WT vWbp (converted). The text has this: (§1) fluorescence quenching on vWbp (von Willebrand factor-binding protein)
In test [3] the target is T2, vWbp (von Willebrand factor-binding protein) (Staphylococcus aureus, UniProt Q93SM9, L69A).
T2 construct: gene vwb
Kind of test: biochemical.
Description: as §1

The target of test [4] is T3, vWbp (von Willebrand factor-binding protein) (Staphylococcus aureus, UniProt Q93SM9, D70A).
T3 construct: gene vwb
The test can be described thus: biochemical.
Description: as §1

Test [5] addresses T4, vWbp (von Willebrand factor-binding protein) (Staphylococcus aureus, UniProt Q93SM9, M83A).
T4 construct: gene vwb
Kind of test: biochemical.
Description: as §1

Test [6] addresses T5, vWbp (von Willebrand factor-binding protein) (Staphylococcus aureus, UniProt Q93SM9, W64A).
T5 construct: gene vwb
The test can be described thus: biochemical.
Description: as §1

In test [7] the target is T1, vWbp (von Willebrand factor-binding protein). The test can be described thus: tube and plate coagulation assay. It counts as biochemical. The conditions noted are these: purified vWbp added to heparinised rabbit blood or fibrinogen agarose, 37 °C; 16-256 μg/ml galangin.

Take `O=c1c(O)c(-c2ccccc2)oc2cc(O)cc(O)c12` [galangin, 3,5,7-trihydroxyflavone]: the Kd in test [1] is 11 µM; in test [2] it was 6.9 µM; in test [3] it was 31.2 µM; in test [4], 9.71 µM; in test [5], 7.35 µM; in test [6], 20 µM. Moreover, the “tube and plate coagulation assay” value in test [7] is “these results demonstrated that galangin can inhibit the coagulase activity of vWbp”.
